Measured values published in US8946203B2, “Benzodioxane inhibitors of leukotriene production” (Boehringer Ingelheim International GmbH, priority 2012, dated 2015).
Where a name gives a salt, the structure may show the parent alone.

The compounds below were run against T1, human LTA4 hydrolase (Homo sapiens, UniProt P09960) (assay: LTA4H Enzyme assay (cleavage of Arg-AMC, fluorescence)). Details: LTA4H Enzyme 1 nM, Arg-AMC substrate 50 μM, room temperature 1 h, fluorescence; read-out: IC50 values of LTA4H Enzyme assay.
T1 sequence (P09960 1-611): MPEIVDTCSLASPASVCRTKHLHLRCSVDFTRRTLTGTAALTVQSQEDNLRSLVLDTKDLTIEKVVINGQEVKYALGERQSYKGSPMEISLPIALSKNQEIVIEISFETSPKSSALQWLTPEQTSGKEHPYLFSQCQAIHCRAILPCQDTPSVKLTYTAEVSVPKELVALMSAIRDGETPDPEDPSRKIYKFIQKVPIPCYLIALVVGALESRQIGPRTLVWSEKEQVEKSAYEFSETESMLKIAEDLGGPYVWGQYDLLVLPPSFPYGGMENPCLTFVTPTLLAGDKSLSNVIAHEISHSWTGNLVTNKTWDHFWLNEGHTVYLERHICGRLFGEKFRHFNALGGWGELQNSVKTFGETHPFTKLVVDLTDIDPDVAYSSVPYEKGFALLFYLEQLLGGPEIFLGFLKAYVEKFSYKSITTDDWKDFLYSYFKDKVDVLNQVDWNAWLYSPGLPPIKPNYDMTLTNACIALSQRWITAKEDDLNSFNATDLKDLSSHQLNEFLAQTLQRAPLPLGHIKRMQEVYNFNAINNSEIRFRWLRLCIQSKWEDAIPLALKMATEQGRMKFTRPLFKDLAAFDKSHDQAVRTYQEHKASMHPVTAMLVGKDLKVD
Assay type: biochemical
Outline: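 Peptidase activity of human LTA4H (1 nM final) on Arg-AMC (50 μM final), with compound, 1 h at room temperature. Buffer: 50 mM Tris-HCl pH 7.5, 100 mM KCl, 0.5% BSA.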

IC50 [pM]	SMILES
380	c1ccc2c(c1)OCC(c1ccc(CN3CCCC3)cc1)O2 (racemic) [Example 1, 1-[4-(2,3-dihydro-1,4-benzodioxin-2-yl)benzyl]pyrrolidine]
1490	O[C@H]1CCN(Cc2ccc(C3COc4ccccc4O3)cc2)C1 (mixture of isomers) [Example 9, (3S)-1-[4-(2,3-dihydro-1,4-benzodioxin-2-yl)benzyl]pyrrolidin-3-ol]
750	O=C1CCCN1CC1CCCN(Cc2ccc(C3COc4ccccc4O3)cc2)C1 (racemic) [Example 10, 1-({1-[4-(2,3-dihydro-1,4-benzodioxin-2-yl)benzyl]piperidin-3-yl}methyl)pyrrolidin-2-one]
1590	O=C(O)C1CCN(Cc2ccc([C@@H]3COc4ccccc4O3)cc2)CC1 [Example 201, (R)-1-[4-(2,3-Dihydro-benzo[1,4]dioxin-2-yl)-benzyl]-piperidine-4-carboxylic acid]
23400	Fc1ccc2c(c1)OC(c1ccc(CN3CCOCC3)cc1)CO2 (stereo not shown) [Example 202, 4-[4-(7-Fluoro-2,3-dihydro-benzo[1,4]dioxin-2-yl)-benzyl]-morpholine]
2940	Fc1ccc2c(c1)OC(c1ccc(CN3CCCC3)cc1)CO2 (stereo not shown) [Example 203, 1-[4-(7-Fluoro-2,3-dihydro-benzo[1,4]dioxin-2-yl)-benzyl]-pyrrolidine]
27500	c1cnc2c(c1)OC[C@@H](c1ccc(CN3CCOCC3)cc1)O2 [Example 205, (R)-3-(4-Morpholin-4-ylmethyl-phenyl)-2,3-dihydro-[1,4]dioxino[2,3-b]pyridine]
190	NC(=O)C1CCN(Cc2ccc([C@H]3COc4cccnc4O3)cc2)CC1 [Example 206, 1-{4-[(3S)-2,3-dihydro[1,4]dioxino[2,3-b]pyridin-3-yl]benzyl}piperidine-4-carboxamide]
860	NC(=O)C1CCN(Cc2ccc([C@@H]3COc4cccnc4O3)cc2)CC1 [Example 207, 1-{4-[(3R)-2,3-dihydro[1,4]dioxino[2,3-b]pyridin-3-yl]benzyl}piperidine-4-carboxamide]
21400	O=C1CCCN1Cc1ccc(C2COc3cccnc3O2)cc1 (stereo not shown) [Example 208, 11-[4-(2,3-dihydro-[1,4]dioxino[2,3-b]pyridin-3-yl)-benzyl]-pyrrolidin-2-one]
12400	O=C1OCCN1Cc1ccc(C2COc3cccnc3O2)cc1 (stereo not shown) [Example 209, 3-[4-(2,3-dihydro[1,4]dioxino[2,3-b]pyridin-3-yl)benzyl]-1,3-oxazolidin-2-one]
19000	NCc1ccc(C2COc3cccnc3O2)cc1 (stereo not shown) [Example 210, 4-(2,3-Dihydro-[1,4]dioxino[2,3-b]pyridin-3-yl)-benzylamine]
490	C[C@H]1CN(Cc2ccc([C@H]3COc4ccccc4O3)cc2)CC[C@H]1C(=O)O [Example 212]
810	O=C(O)C1(F)CCN(Cc2ccc([C@H]3COc4ccccc4O3)cc2)CC1 [Example 213, 1-{4-[(2S)-2,3-dihydro-1,4-benzodioxin-2-yl]benzyl}-4-fluoropiperidine-4-carboxylic acid]
700	O=C(O)[C@H]1CCN(Cc2ccc([C@H]3COc4ccccc4O3)cc2)C1 [Example 215, (3S)-1-{4-[(2S)-2,3-dihydro-1,4-benzodioxin-2-yl]benzyl}pyrrolidine-3-carboxylic acid]
370	O=C(CO)NC1CCN(Cc2ccc([C@H]3COc4ccccc4O3)cc2)CC1 [Example 218, N-{1-[(S)-4-(2,3-Dihydro-benzo[1,4]dioxin-2-yl)-benzyl]-piperidin-4-yl}-2-hydroxy-acetamide]
160	CC(C)(O)C(=O)NC1CCN(Cc2ccc([C@H]3COc4cccnc4O3)cc2)CC1 [Example 221, N-(1-{4-[(3S)-2,3-dihydro[1,4]dioxino[2,3-b]pyridin-4-yl]benzyl}piperidin-4-yl)-2-hydroxy-2-methylpropanamide]
140	O=C(CO)NC1CCN(Cc2ccc([C@H]3COc4cccnc4O3)cc2)CC1 [Example 222, N-(1-{4-[(3S)-2,3-dihydro[1,4]dioxino[2,3-b]pyridin-3-yl]benzyl}piperidin-4-yl)-2-hydroxyacetamide]
160	O=C(NC1CCN(Cc2ccc([C@H]3COc4cccnc4O3)cc2)CC1)C1(O)CC1 [Example 223, N-(1-{4-[(3S)-2,3-dihydro[1,4]dioxino[2,3-b]pyridin-3-yl]benzyl}piperidin-4-yl)-1-hydroxycyclopropanecarboxamide]
130	O=S1(=O)CCCN1C1CCN(Cc2ccc([C@H]3COc4ccccc4O3)cc2)CC1 [Example 224, 1-[(S)-4-(2,3-Dihydro-benzo[1,4]dioxin-2-yl)-benzyl]-4-(1,1-dioxo-1λ^6-isothiazolidin-2-yl)-piperidine]
43000	CC(c1ccc([C@H]2COc3ccccc3O2)cc1)N1CCOCC1 (stereo partly drawn) [Example 226, 4-(1-{4-[(2S)-2,3-dihydro-1,4-benzodioxin-2-yl]phenyl}ethyl)morpholine]
1240	CC(C)(C(=O)O)C1CCN(Cc2ccc([C@H]3COc4cccnc4O3)cc2)CC1 [Example 230, 2-{1-[(S)-4-(2,3-Dihydro-[1,4]dioxino[2,3-b]pyridin-3-yl)-benzyl]-piperidin-4-yl}-2-methyl-propionic acid formate salt]
290	O=C(O)c1ccc(CC2CCN(Cc3ccc([C@H]4COc5ccccc5O4)cc3)CC2)cc1 [Example 231, 4-{1-[(S)-4-(2,3-Dihydro-benzo[1,4]dioxin-2-yl)-benzyl]-piperidin-4-ylmethyl}-benzoic acid]
2750	O=C(O)c1ccc2c(c1)CN(Cc1ccc([C@H]3COc4ccccc4O3)cc1)CC2 [Example 232, 2-{4-[(2S)-2,3-dihydro-1,4-benzodioxin-2-yl]benzyl}-1,2,3,4-tetrahydroisoquinoline-7-carboxylic acid]
220	O=C(O)c1ccc(C2CCN(Cc3ccc([C@H]4COc5ccccc5O4)cc3)CC2)cc1 [Example 233, 4-(1-{4-[(2S)-2,3-dihydro-1,4-benzodioxin-2-yl]benzyl}piperidin-4-yl)benzoic acid]
80	O=C(O)c1ccc(C2CCN(Cc3ccc([C@H]4COc5cccnc5O4)cc3)CC2)cc1 [Example 235, 4-(1-{4-[(3S)-2,3-dihydro[1,4]dioxino[2,3-b]pyridin-3-yl]benzyl}piperidin-4-yl)benzoic acid]
550	CCN(Cc1ccc([C@H]2COc3ccccc3O2)cc1)Cc1cccc(C(=O)O)c1 [Example 238, 3-{[{4-[(2S)-2,3-dihydro-1,4-benzodioxin-2-yl]benzyl}(ethyl)amino]methyl}benzoic acid]
150	O=C(O)c1cccc(CN2CCN(Cc3ccc([C@H]4COc5ccccc5O4)cc3)CC2)c1 [Example 239, 3-{4-[(S)-4-(2,3-Dihydro-benzo[1,4]dioxin-2-yl)-benzyl]-piperazin-1-ylmethyl}-benzoic acid]

SMILES	IC50 [pM]
O=C(O)[C@H]1CC[C@@H](NCc2ccc([C@H]3COc4ccccc4O3)cc2)C1 [Example 191, (1S,3R)-3-({4-[(2S)-2,3-dihydro-1,4-benzodioxin-2-yl]benzyl}amino)cyclopentane-carboxylic acid]	1620
CC1(C(=O)O)CCN(Cc2ccc([C@H]3COc4ccccc4O3)cc2)CC1 [Example 211, 1-[(S)-4-(2,3-Dihydro-benzo[1,4]dioxin-2-yl)-benzyl]-4-methyl-piperidine-4-carboxylic acid]	690
c1ccc2c(c1)OC[C@H](c1ccc(CN3CCC(c4nnn[nH]4)CC3)cc1)O2 [Example 216, 1-[(S)-4-(2,3-Dihydro-benzo[1,4]dioxin-2-yl)-benzyl]-4-(1H-tetrazol-5-yl)-piperidine]	130
NC1CCN(Cc2ccc([C@H]3COc4ccccc4O3)cc2)CC1 [Example 217, 1-[(S)-4-(2,3-Dihydro-benzo[1,4]dioxin-2-yl)-benzyl]-piperidin-4-ylamine]	2280
CC(c1ccc([C@H]2COc3ccccc3O2)cc1)N1CCCC1 (stereo partly drawn) [Example 225, 1-{1-[(S)-4-(2,3-dihydro-benzo[1,4]dioxin-2-yl)-phenyl]-ethyl}-pyrrolidine]	5300
CC1(C(=O)O)CCN(Cc2ccc([C@H]3COc4cccnc4O3)cc2)CC1 [Example 228, 1-[(S)-4-(2,3-Dihydro-[1,4]dioxino[2,3-b]pyridin-3-yl)-benzyl]-4-methyl-piperidine-4-carboxylic acid formate salt]	610

These compounds were tested on synthesis of LTB4 in human whole blood (assay: human whole blood (HWB) assay, LTB4 production inhibition after calcimycin stimulation). Details: heparinized human whole blood, calcimycin 20 μM, plasma LTB4 by HTRF.
Assay type: cell-based
Method: The compounds of the invention are additionally tested in a human whole blood (HWB) assay to determine their ability to inhibit the synthesis of LTB4 in a cellular system. Compounds are combined with heparinized human whole blood and incubated for 15 minutes at 37° C. Calcimycin (20 μM final, prepared in phosphate-buffered saline, pH 7.4) is then added and the mixture is incubated for another 30 minutes at 37° C. The samples are centrifuged for 5 min at low speed (1500×g) and the plasma layer is removed. Plasma LTB4 concentrations are then measured using an antibody-based homogenous time-resolved fluorescence method (CisBio, Bedford, Mass.). In general, the preferred potency range (IC50) of compounds in the HWB assay is between 10 nM to 10 μM, the more preferred potency range is 10 nM to 1 μM, and the most preferred potency range is 10 nM to 100 nM.

IC50 [pM]	SMILES
179000	c1ccc2c(c1)OCC(c1ccc(CN3CCCC3)cc1)O2 (racemic) [Example 1, 1-[4-(2,3-dihydro-1,4-benzodioxin-2-yl)benzyl]pyrrolidine]
285000	O[C@H]1CCN(Cc2ccc(C3COc4ccccc4O3)cc2)C1 (mixture of isomers) [Example 9, (3S)-1-[4-(2,3-dihydro-1,4-benzodioxin-2-yl)benzyl]pyrrolidin-3-ol]
352000	O=C1CCCN1CC1CCCN(Cc2ccc(C3COc4ccccc4O3)cc2)C1 (racemic) [Example 10, 1-({1-[4-(2,3-dihydro-1,4-benzodioxin-2-yl)benzyl]piperidin-3-yl}methyl)pyrrolidin-2-one]
